Earlier results on one compound are cited in publication PMC11887511 (Crystal Growth & Design, 2025).

The conditions of this data set: no reference given.

For the compound `O=C(O)CNCC(=O)O` [IDA, iminodiacetic acid], the pKa1 was 2.12, the pKa2 is listed as 2.90 and the “pKa[base]” value is given as 9.63.
